{
  "source": "ChEMBL document CHEMBL4715910",
  "about": "“Insights into non-peptide small-molecule inhibitors of the PD-1/PD-L1 interaction: Development and perspective” (Bioorg Med Chem, 2021)",
  "data": [
    {"tested_on": "Jurkat", "experiment": "Cytotoxicity against human Jurkat T cells assessed as reduction in cell viability", "assay_type": "cell-based", "units": {"IC50": "nM"}, "values": [
      {"compound": "Cc1cc(CN[C@H](CO)C(=O)O)c(OCc2cccc(C#N)c2)cc1OCc1cccc(-c2ccc3c(c2)OCCO3)c1C", "IC50": "< 100"}
    ]},
    {"biological_target": "Programmed cell death protein 1/Programmed cell death 1 ligand 1 (Homo sapiens, UniProt Q15116+Q9NZQ7)", "sequence (Q15116 whole entry)": "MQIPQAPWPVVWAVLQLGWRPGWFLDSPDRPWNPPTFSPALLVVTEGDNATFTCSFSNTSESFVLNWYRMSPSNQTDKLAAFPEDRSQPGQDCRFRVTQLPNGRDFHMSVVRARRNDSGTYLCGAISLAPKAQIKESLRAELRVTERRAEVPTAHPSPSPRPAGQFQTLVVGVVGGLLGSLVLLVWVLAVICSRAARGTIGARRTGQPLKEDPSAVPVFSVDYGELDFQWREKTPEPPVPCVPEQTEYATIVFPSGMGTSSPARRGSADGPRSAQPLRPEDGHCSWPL", "sequence (Q9NZQ7 whole entry)": "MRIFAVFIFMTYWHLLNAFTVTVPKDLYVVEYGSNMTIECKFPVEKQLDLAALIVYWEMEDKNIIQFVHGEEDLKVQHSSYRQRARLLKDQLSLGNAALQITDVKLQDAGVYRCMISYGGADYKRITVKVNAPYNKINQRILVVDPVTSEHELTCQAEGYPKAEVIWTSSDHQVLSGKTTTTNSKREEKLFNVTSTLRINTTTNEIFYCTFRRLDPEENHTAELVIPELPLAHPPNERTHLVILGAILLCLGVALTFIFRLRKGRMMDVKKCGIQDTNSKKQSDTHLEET", "experiment": "Inhibition of PD-1/PDL1 (unknown origin) by ELISA", "assay_type": "protein-complex assay", "units": {"IC50": "nM"}, "values": [
      {"compound": "Cc1cc(C(=O)Nc2cccc(-c3ccccc3)c2C)ncc1CN1CCCC[C@H]1C(=O)O", "IC50": "≤ 10"},
      {"compound": "Cc1c(-c2ccccc2)cccc1-c1nc2cc(CN3CCCC[C@H]3C(=O)O)cc(C)c2o1", "IC50": "≤ 10"},
      {"compound": "Cc1cc(C(=O)Nc2cccc(-c3ccccc3)c2C)ncc1CNCCO", "IC50": "≤ 10"},
      {"compound": "Cc1c(Nc2nccc3ccc(CNCCO)nc23)cccc1-c1ccccc1", "IC50": "≤ 10"},
      {"compound": "Cc1c(COc2ccc(CN3CCCC[C@H]3C(=O)O)cc2Br)cccc1-c1cccc(COc2ccc(CN3CCCC[C@H]3C(=O)O)cc2Br)c1C", "IC50": "≤ 10"},
      {"compound": "Cc1c(-c2ccccc2)cccc1-c1nc2cc(CNCCO)ccc2o1", "IC50": "≤ 10"},
      {"compound": "Cc1cc(CNCCO)ccc1OCc1cccc(-c2cccc(COc3ccc(CNCCO)cc3C)c2C)c1C", "IC50": "≤ 10"},
      {"compound": "Cc1c(Nc2nccc3c(CN4CCCCC4C(=O)O)ccnc23)cccc1-c1ccccc1", "note": "(stereo not given)", "IC50": "≤ 10"}
    ]},
    {"biological_target": "Programmed cell death 1 ligand 1 (Homo sapiens) (UniProt Q9NZQ7)", "sequence (Q9NZQ7 whole entry)": "as above", "units": {"Tm": "°C"}, "description": "Binding affinity to human PDL1 (18 to 134 residues) expressed in Escherichia coli BL21 (DE3) cells assessed as melting temperature by differential scanning fluorimetry (Rvb = 35.4 degreec)", "values": [
      {"compound": "COc1nc(OCc2cccc(-c3ccccc3)c2C)ccc1CNCCNC(C)=O", "Tm": 48.4}
    ]}
  ]
}
